# Columns and labels:
# [1] = Measurement of serum level in rats by HPLC; format: in vivo, Sprague Dawley rats
# Protocol: (§1) Serum concentrations of alizarin were determined with serum isolated from the blood of male and female German shepherd dogs (age: 8-9 months) taken at different time points (0.5 h, 1 h, 2 h, 4 h, 6 h, 8 h, 24 h) after oral intake of the indicated doses for 4 weeks. In addition, serum concentrations of alizarin (Compound-1) were determined in male and female Sprague Dawley rats (body weight: 200-250 g) treated for 1 month and/or three months by oral gavage of alizarin at a once daily dose of 100 mg/kg, 50 mg/kg, 25 mg/kg and 12.5 mg/kg. Serum proteins were removed by acetonitrile precipitation, and alizarin was extracted by chloroform before separation on an HPLC-C18 column (Poroshell 120 EC-C18, 3.0×50 mm, Agilent) with an HPLC system (Agilent 1100 Series) and detection at OD245 nm. For quantitative determination of Compound-7 and Compound-10F in rat and dog serum, serum proteins were also removed by acetonitrile precipitation before HPLC analysis as detailed above and detection at OD254 nm.
# [2] = biological target: T1, Tomm6 (Mus musculus, UniProt Q9CQN3); assay: Immunoblot detection of hippocampal Tomm6 protein in treated Tg2576 mice; format: in vivo; details: Tg2576 AD mice subjected to the CUMS protocol, treated during CUMS (10 mg/kg/d)
# T1 construct: hippocampi were isolated from 5-10 aged Tg2576 mice, pulverized under liquid nitrogen and solubilized; from tissue; host or cells: hippocampus of Tg2576 mice
# T1 sequence (Q9CQN3 1-74): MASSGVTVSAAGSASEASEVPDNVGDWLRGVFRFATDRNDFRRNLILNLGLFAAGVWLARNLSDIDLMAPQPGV
# [3] = test system: aggregated Agtr2; assay: ELISA of aggregated Agtr2 protein in PBMC of rats subjected to CUMS; format: in vivo, rats (Sprague Dawley); details: aged rats, 4 weeks of CUMS, treated during CUMS
# Excerpt: More preferably, AGTR2 aggregation is detected with a sandwich ELISA. To this end the following steps can be performed: • (i) The first step of the sandwich ELISA is the immobilization of AGTR2-specific capture antibodies (any species, e.g. rabbit, rat, mouse, cameloid; serum, affinity-enriched; F(ab)2 fragments, nanobodies as generated in step (vi)) on an ELISA plate (Nunc Maxisorb), 0.1-10 microg/well, preferably 1-5 microg, more preferably, 1-2 microg in 100 microL of a suitable buffer (e.g. 0.1 M sodium acetate, 0.1 M NaCl, pH 5.5; or 15.9 mM Na2CO3, 35 mM NaHCO3, pH 9.6) by overnight incubation at 4° C. […] After the incubation time, unbound antibody is removed by washing steps (without Tween 20). • (v) Bound antibody is detected by a substrate reaction, which includes the addition of 50-400 microL, preferably 100-200 microL of substrate buffer (18 microL of 30% H2O2 added to 10.5 ml ABTS solution (22 mg ABTS dissolved in 100 ml of 50 mM sodium citrate, pH 4.0-pH 4.5). Any other substrate (e.g. is also feasible. After an incubation time of 1 min-5 h at 4° C.-37° C., preferably 30 min-1 h, more preferably 30 min at 37° C., optical density is measured at 410 nm, e.g. on a plate reader (Versa Max, Molecular Devices). […]
# [4] = test system: Agtr2 (AT2R); assay: Immunoblot detection of Agtr2 in PBMCs of aged rats subjected to CUMS; format: in vivo, rats (Sprague Dawley); details: 4 weeks of CUMS, treated during CUMS
# [5] = Toxic adverse effects during 3 months of treatment of Tg2576 AD mice; format: in vivo; details: daily dose of 10 mg/kg
# [6] = test system: hyperphosphorylated PHF tau; assay: Hippocampal hyperphosphorylated PHF tau in aged rats subjected to CUMS, immunoblot; format: in vivo, rats (Sprague Dawley); details: 4 weeks of CUMS, 10 mg/kg/d during CUMS
# [7] = test system: hyperphosphorylated PHF-Tau; assay: Hippocampal hyperphosphorylated PHF-Tau in Tg2576 mice subjected to CUMS, binding assay with [125I]-labeled AT8 antibody; format: in vivo; details: 15 months-old Tg2576 mice, 3 months of CUMS, treated during CUMS; compounds 10 mg/kg/d
# [8] = test system: hippocampal neuronal cell bodies (NeuN); assay: Hippocampal neuronal loss in Tg2576 mice subjected to CUMS, binding assay with [125I]-labeled anti-NeuN antibody; format: in vivo; details: 15 months-old Tg2576 mice, 3 months of CUMS, treated during CUMS; compounds 10 mg/kg/d
# [9] = Measurement of serum level in dogs by HPLC; format: in vivo, German shepherd dogs
# Protocol: as §1
compound,measurement,setting,value
"Cc1nc(CO)cc(-c2ccc(F)cc2)c1C(N)=O [Compound-10F, 4-(4-fluorophenyl)-6-(hydroxymethyl)-2-methyl-pyridine-3-carboxamide]",oral bioavailability / serum concentrations after oral intake,[1]; rats,had oral bioavailability
same,"oral doses required to achieve equivalent peak serum concentrations, higher in rats compared to dogs",[1]; rats vs dogs,approximately 10 fold
same,time of peak serum concentration,"[1]; rats, repeated once daily oral intake of 20 mg/kg/d",1 h
same,hippocampal Tomm6 protein content,[2],significantly higher
same,PBMC content of aggregated Agtr2 protein (ELISA),[3],significantly retarded the CUMS-induced accumulation of Agtr2 aggregates
same,PBMC content of monomeric Agtr2,[4],significantly higher compared to untreated controls
same,accumulation of aggregated Agtr2 in PBMCs,[4],prevented the accumulation of aggregated Agtr2
same,toxic adverse effects,[5],did not show any detectable toxic adverse effects
same,hippocampal accumulation of hyperphosphorylated PHF tau,[6],prevented the hippocampal accumulation of hyperphosphorylated PHF tau
same,hippocampal content of hyperphosphorylated PHF-Tau,[7],significantly inhibited the hippocampal accumulation of hyperphosphorylated PHF tau
same,hippocampal neuronal loss,[8],retarded the CUMS-induced hippocampal neuronal loss
same,oral bioavailability / serum concentrations after oral intake,[9],had oral bioavailability
